The test system of one assay is E. falciformis. Description: Coccidiosis in mice, minimum effective dose (oocyst excretion, clinical symptoms, mortality). The conditions noted are these: for minimal effective dose: Eimeria falciformis, mice (15 g), infected with 10,000 sporulated oocysts, treated on days 1, 2, 3, 6, 7 and 8 after infection, read-out: wirksame Mindestdosierung E. falciformis. The assay is classed as in vivo, Eimeria falciformis. An excerpt:
Die coccidiostatische Aktivität von Verbindungen, die für die Verbindungen gemäß der Erfindung repräsentativ sind, wird in Tabelle 1 veranschaulicht, wo Eimeria tenella (Blinddarm-Coccidiose/Hühner), Eimeria acervulina und Eimeria maxima (Dünndarm-Coccidiose von Hühnern) als Beispiele der Aktivität im Falle der Coddidiose bei Geflügel genannt sind, während Eimeria falciformus (Coccidiose/Mäuse) als Coccidium bei Säugetieren angegeben ist.
Die Behandlung der Infektion mit Eimeria falciformis bei Mäusen, die als Beispiel der Coccidiose bei Säugetieren erwähnt ist, fand am ersten, zweiten, dritten, sechsten, siebten und achten Tag nach der Infektion statt. Die Infektion erfolgte mit.10,000 sporulierten Oozysten pro Maus (Gewicht 15 g). Im Falle der unbehandelten Vergleichstiere fanden massive Ausscheidung von Oozysten, blutiger Durchfall und 30 % Sterblichkeit der Tiere, die der Infektion zuzuschreiben waren, vom siebten Tage nach der Infektion an statt.
Als wirksam wurden diejenigen Dosen angesehen, die die Ausscheidung von Oozysten und/oder klinische Symptome der Coccidiose einschließlich der Mortalität vollständig oder in hohem Maße verhüteten.

In another assay the test system is E. maxima. Briefly: Coccidiosis in chicks, minimum effective dose (oocyst excretion, clinical symptoms, mortality). Format: in vivo, Eimeria maxima.
The next assay deals with E. acervulina. The assay is described as above. Format: in vivo, Eimeria acervulina.
The next assay relates to E. tenella. Described as above. The assay is classed as in vivo, Eimeria tenella.
Setting [1] is: chicks 9 to 11 days old, infected with 4000 sporulated oocysts, compound given from 3 days before to 8 days after infection.

Molecules are shown by their SMILES. Counter-ions that a name gives are not always drawn.

Turning to `CCCc1ncc(C[n+]2ccccc2C)c(N)n1` [A, 1[(4-Amino-2-propyl-5-pyrimidinyl)-methyl]-2-picoliniumchloridhydrochlorid, reference compound], the minimal effective dose in the assay with E. falciformis was determined as 500 mg/kg. Besides, the “wirksame Mindestdosierung E. maxima” value in the assay on E. maxima (setting [1]) is on record as 125 ppm. In addition, the “wirksame Mindestdosierung E. acervulina” value with E. acervulina (setting [1]) is 125 ppm. Also, the “wirksame Mindestdosierung E. tenella” value with E. tenella (setting [1]) is on record as 125 ppm.
With `CCC1(C2OC(C3OC(O)(CO)C(C)CC3C)CC2C)CCC(C2(C)CCC3(CC(O)C(C)C(C(C)C(OC)C(C)C(=O)O)O3)O2)O1` (centres unmarked) [M, reference compound], the “wirksame Mindestdosierung E. falciformis” value in the assay on E. falciformis (in vivo) came to 250 mg/kg. Further, in the assay with E. maxima (in vivo), the “wirksame Mindestdosierung E. maxima” value turned out to be 50 ppm. The “wirksame Mindestdosierung E. acervulina” value in the assay with E. acervulina (in vivo) is on record as 50 ppm. The “wirksame Mindestdosierung E. tenella” value in the assay with E. tenella (in vivo) is 75 ppm.
Regarding `Cn1c(=O)[nH]c(=O)n(-c2cc(Cl)c(Oc3ccc(SCC(F)(F)F)cc3)c(Cl)c2)c1=O` [[drawing] r3], the minimal effective dose in the assay on E. falciformis was determined as 1 mg/kg. Besides, in the assay with E. maxima (setting [1]), the “wirksame Mindestdosierung E. maxima” value came out at 25 ppm. Besides, in the assay on E. acervulina (setting [1]), the “wirksame Mindestdosierung E. acervulina” value is 25 ppm. Besides, the “wirksame Mindestdosierung E. tenella” value with E. tenella (setting [1]) worked out at 50 ppm.
As to `COc1cc(-n2c(=O)[nH]c(=O)n(C)c2=O)ccc1Oc1ccc(SCC(F)(F)F)cc1` [[drawing] r4], the minimal effective dose with E. falciformis came out at 25 mg/kg. In the assay with E. maxima (setting [1]), the “wirksame Mindestdosierung E. maxima” value was 50 ppm. Besides, in the assay on E. acervulina (setting [1]), the “wirksame Mindestdosierung E. acervulina” value turned out to be 50 ppm. Besides, the “wirksame Mindestdosierung E. tenella” value in the assay with E. tenella (setting [1]) amounted to 50 ppm.
For `Cn1c(=O)[nH]c(=O)n(-c2cc(Cl)c(Oc3ccc(S(=O)(=O)CC(F)(F)F)cc3)c(Cl)c2)c1=O` [[drawing] r5], the minimal effective dose in the assay with E. falciformis worked out at 100 mg/kg. For the same molecule, the “wirksame Mindestdosierung E. maxima” value in the assay with E. maxima (setting [1]) is 10 ppm. Besides, the “wirksame Mindestdosierung E. acervulina” value with E. acervulina (setting [1]) was found to be 10 ppm. Further, in the assay on E. tenella (setting [1]), the “wirksame Mindestdosierung E. tenella” value is 10 ppm.

The values are drawn from patent EP0123217A1, “1-(4-(4-(Fluoralkylmethylthio or sulfinyl or sulfinyl-)phenoxy)phenyl)-1,3,5-triazine-2,4,6(1H-3H,5H)triones, process for their preparation and their use as agents against coccidiosis” (BAYER AG, priority 1983, dated 1984).
